Results: patent publication US20260226000A1, “Methadone Active Agents and Methods of Use Thereof” (Ensysce Biosciences Inc., priority 2023, published 2026)
Counter-ions that a name gives are not always drawn.

Experiments:
[1] = target: hERG (human ether-à-go-go-related gene) channel expressed in CHO cells (Homo sapiens, UniProt Q12809); test: ScreenPatch assay, hERG ion channel block (SyncroPatch 384PE patch clamp); conditions: for Methadone Active Agent/Methadone Ratio (hERG IC50): IC50 relative to racemic methadone HCl
[2] = Maximally tolerated dose study by oral gavage administration

Sequence of hERG (human ether-à-go-go-related gene) channel expressed in CHO cells (Q12809 whole entry): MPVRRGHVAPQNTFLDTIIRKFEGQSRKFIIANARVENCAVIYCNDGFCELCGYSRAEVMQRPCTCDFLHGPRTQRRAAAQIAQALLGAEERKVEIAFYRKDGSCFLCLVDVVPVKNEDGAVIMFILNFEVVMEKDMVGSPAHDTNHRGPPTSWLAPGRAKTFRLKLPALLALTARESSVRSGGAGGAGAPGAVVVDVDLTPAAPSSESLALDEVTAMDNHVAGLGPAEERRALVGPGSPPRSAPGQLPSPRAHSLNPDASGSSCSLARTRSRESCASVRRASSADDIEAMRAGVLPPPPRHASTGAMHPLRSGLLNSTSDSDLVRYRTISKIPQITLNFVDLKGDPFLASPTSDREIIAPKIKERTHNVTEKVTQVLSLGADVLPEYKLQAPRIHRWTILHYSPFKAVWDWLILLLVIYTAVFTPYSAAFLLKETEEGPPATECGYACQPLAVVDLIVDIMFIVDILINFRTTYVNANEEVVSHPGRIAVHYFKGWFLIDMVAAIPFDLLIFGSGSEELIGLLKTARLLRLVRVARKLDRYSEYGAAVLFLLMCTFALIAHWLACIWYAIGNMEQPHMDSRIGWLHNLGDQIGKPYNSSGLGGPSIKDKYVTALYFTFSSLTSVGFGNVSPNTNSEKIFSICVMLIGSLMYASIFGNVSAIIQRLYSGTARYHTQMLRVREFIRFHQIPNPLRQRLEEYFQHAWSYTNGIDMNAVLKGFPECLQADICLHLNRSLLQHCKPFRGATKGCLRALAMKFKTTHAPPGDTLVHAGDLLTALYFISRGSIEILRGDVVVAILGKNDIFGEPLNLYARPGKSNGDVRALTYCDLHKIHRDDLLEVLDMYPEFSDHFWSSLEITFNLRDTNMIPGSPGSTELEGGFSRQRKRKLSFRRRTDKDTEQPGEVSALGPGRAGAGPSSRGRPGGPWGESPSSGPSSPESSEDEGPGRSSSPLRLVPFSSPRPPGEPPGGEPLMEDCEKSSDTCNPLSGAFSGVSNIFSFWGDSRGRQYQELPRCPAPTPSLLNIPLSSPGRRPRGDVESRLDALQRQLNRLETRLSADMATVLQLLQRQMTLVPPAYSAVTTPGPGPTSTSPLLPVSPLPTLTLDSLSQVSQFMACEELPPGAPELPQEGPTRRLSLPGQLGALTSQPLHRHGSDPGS

SMILES: CCC(=O)C(CC(C)N(C)C)(c1ccccc1)c1ccccc1 (racemic) [Racemic Methadone HCl, Methadone]
- IC50 [1]: 1.89 µM

SMILES: C/C=C(/OC(=O)N(C)C(C)CNC(=O)[C@H](CCCNC(=N)N)NC(=O)c1ccccc1)C(C[C@@H](C)N(C)C)(c1ccccc1)c1ccccc1.O=C(O)C(F)(F)F (stereo partly drawn) [Levo 1ME active agent, (R)-6-(dimethylamino)-4,4-diphenylhept-2-en-3-yl (1-((S)-2-benzamido-5-guanidinopentanamido)propan-2-yl)(methyl)carbamate 2,2,2-trifluoroacetate]
- clinical observations ([2]; doses up to 100 mg/kg): did not have any clinical observations
- IC50 [1]: > 100 µM
- Methadone Active Agent/Methadone Ratio (hERG IC50) [1]: >53

SMILES: C/C=C(/OC(=O)N(C)C[C@@H](C)NC(=O)[C@H](CCCNC(=N)N)NC(=O)c1ccccc1)C(C[C@@H](C)N(C)C)(c1ccccc1)c1ccccc1.O=C(O)C(F)(F)F [Levo 2RME active agent, (R)-6-(dimethylamino)-4,4-diphenylhept-2-en-3-yl ((R)-2-((S)-2-benzamido-5-guanidinopentanamido)propyl)(methyl)carbamate 2,2,2-trifluoroacetate]
- clinical observations ([2]; 100 mg/kg and 125 mg/kg): no clinical observations through 72 hr period or limited observations
- clinical observations ([2]; 50 and 75 mg/kg): some observations
- IC50 [1]: 29.4 µM
- Methadone Active Agent/Methadone Ratio (hERG IC50) [1]: 15.6

SMILES: C/C=C(/OC(=O)N(C)CCCCNC(=O)[C@H](CCCNC(=N)N)NC(=O)c1ccccc1)C(C[C@@H](C)N(C)C)(c1ccccc1)c1ccccc1.O=C(O)C(F)(F)F [Levo-Butyl active agent, (R)-6-(dimethylamino)-4,4-diphenylhept-2-en-3-yl (4-((S)-2-benzamido-5-guanidinopentanamido)butyl)(methyl)carbamate 2,2,2-trifluoroacetate]
- clinical observations ([2]; 100 mg/kg and 125 mg/kg): no clinical observations through 72 hr period or limited observations
- clinical observations ([2]; 50 and 75 mg/kg): some observations
- IC50 [1]: 51.5 µM
- Methadone Active Agent/Methadone Ratio (hERG IC50) [1]: 27.3
